SMILES strings stand for the structures. Like-named read-outs stand apart in the source and are kept apart here. Peptide text beside a SMILES is read from it.

The source of these data is patent publication US8030453B2, “Methods of making an antibody that binds a chemerin polypeptide” (Euroscreen S.A., priority 2001, dated 2011).

For this assay, the target named is T1, human ChemerinR (ChemR23) expressed in CHO-K1 cells (Homo sapiens, UniProt Q99788).
T1 construct: This fragment was subcloned into the pcDNA3 (Invitrogen) vector; expressed in transfected cells; host or cells: CHO-K1 (co-expressing mitochondrial apoaequorin and Galpha16)
T1 sequence (Q99788 3-373): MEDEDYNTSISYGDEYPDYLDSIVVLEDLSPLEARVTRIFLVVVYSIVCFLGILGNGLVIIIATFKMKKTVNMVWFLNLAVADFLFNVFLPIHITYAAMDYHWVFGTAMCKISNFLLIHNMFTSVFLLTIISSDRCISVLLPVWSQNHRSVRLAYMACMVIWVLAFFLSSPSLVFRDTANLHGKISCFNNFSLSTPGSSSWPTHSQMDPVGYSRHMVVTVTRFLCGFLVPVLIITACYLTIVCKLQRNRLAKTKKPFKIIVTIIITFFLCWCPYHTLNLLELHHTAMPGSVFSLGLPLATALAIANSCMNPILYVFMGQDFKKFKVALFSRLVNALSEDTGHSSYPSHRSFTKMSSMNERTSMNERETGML
The assay can be described thus: aequorin-based intracellular Ca2+ release assay. It counts as cell-based. As for the experimental part:
Briefly, ChemerinR-expressing clones are transfected to coexpress mitochondrial apoaequorin and Gα16. Cells are incubated with 5 μM Coelenterazine H (Molecular Probes) for 4 hours at room temperature, washed in DMEM-F12 culture medium and resuspended at a concentration of 0.5×10^6 cells/ml. Cells are then mixed with test agonist peptides and light emission by the aequorin is recorded with a luminometer for 30 sec. Results are expressed as Relative Light Units (RLU). Controls include assays using membranes isolated from cells not expressing ChemerinR (mock-transfected), in order to exclude possible non-specific effects of the candidate compound.
ChemerinR-expres sing clones have been obtained by transfection of CHO-K1 cells to coexpressing mitochondrial apoaequorin and Gα16, limiting dilution and selection by northern blotting. Positive clones were used for screening with human ovarian cancer ascites extracts prepared as described above. […] Briefly, cells were collected from plates in PBS containing 5 mM EDTA, pelleted and resuspended at 5×10^6 cells/ml in DMEM-F12 medium. Cells were incubated with 5 μM Coelenterazine H (Molecular Probes) for 4 hours at room temperature. Cells were then washed in DMEM-F12 medium and resuspended at a concentration of 0.5×10^6 cells/ml. Cells were then mixed with test agonist peptides or plates containing tissue extracts and the light emission was recorded for 30 sec using a Microlumat luminometer (Perkin Elmer). Results are expressed as Relative Light Units (RLU).

[1] abbreviates: truncated Chemerin peptides, values given in μM, read-out: Mean EC50.

In general, EC50 refers to the concentration needed to bring the measured effect to its halfway point. In turn, `C[C@H](NC(=O)[C@H](Cc1ccccc1)NC(=O)[C@H](CCC(N)=O)NC(=O)CNC(=O)[C@@H]1CCCN1)C(=O)N[C@@H](Cc1ccccc1)C(=O)N[C@@H](CO)C(=O)O` [Human Chemerin-7, PGQFAFS] (H-PGQFAFS-OH) registered an EC50 of 220000 ± 100000 nM.
`C[C@H](NC(=O)[C@H](Cc1ccccc1)NC(=O)[C@H](CCC(N)=O)NC(=O)CNC(=O)[C@@H]1CCCN1C(=O)[C@@H](N)Cc1ccccc1)C(=O)N[C@@H](Cc1ccccc1)C(=O)N[C@@H](CO)C(=O)O` [Human Chemerin-8] (H-FPGQFAFS-OH; N-terminus and C-terminus assumed): a half-maximal effect (EC50) was put at 2000 ± 1000 nM.
For `C[C@H](NC(=O)[C@H](Cc1ccccc1)NC(=O)[C@H](CCC(N)=O)NC(=O)CNC(=O)[C@@H]1CCCN1C(=O)[C@H](Cc1ccccc1)NC(=O)[C@H](Cc1ccc(O)cc1)NC(=O)[C@@H](N)Cc1ccccc1)C(=O)N[C@@H](Cc1ccccc1)C(=O)N[C@@H](CO)C(=O)O` [Human Chemerin-10] (H-FYFPGQFAFS-OH; N-terminus and C-terminus assumed), it took 8.2 ± 2 nM to reach a half-maximal effect (EC50).
The same measure, in the same setting: the result for `C[C@H](NC(=O)[C@H](Cc1ccccc1)NC(=O)[C@H](CCC(N)=O)NC(=O)CNC(=O)[C@@H]1CCCN1C(=O)[C@H](Cc1ccccc1)NC(=O)[C@H](Cc1ccc(O)cc1)NC(=O)[C@H](Cc1ccccc1)NC(=O)[C@H](CO)NC(=O)[C@@H](N)Cc1c[nH]cn1)C(=O)N[C@@H](Cc1ccccc1)C(=O)N[C@@H](CO)C(=O)O` [Human Chemerin-12] (H-HSFYFPGQFAFS-OH; N-terminus and C-terminus assumed) reads 12.2 ± 3.4 nM; that for `C[C@H](NC(=O)[C@H](Cc1ccccc1)NC(=O)[C@H](CCC(N)=O)NC(=O)CNC(=O)[C@@H]1CCCN1C(=O)[C@H](Cc1ccccc1)NC(=O)[C@H](Cc1ccc(O)cc1)NC(=O)[C@H](Cc1ccccc1)NC(=O)[C@H](CO)NC(=O)[C@H](Cc1c[nH]cn1)NC(=O)[C@@H]1CCCN1)C(=O)N[C@@H](Cc1ccccc1)C(=O)N[C@@H](CO)C(=O)O` [Human Chemerin-13] (H-PHSFYFPGQFAFS-OH), 14 nM.
With `C[C@H](NC(=O)[C@H](Cc1ccccc1)NC(=O)[C@H](CCC(N)=O)NC(=O)CNC(=O)[C@@H]1CCCN1C(=O)[C@H](Cc1ccccc1)NC(=O)[C@H](Cc1ccc(O)cc1)NC(=O)[C@H](Cc1ccccc1)NC(=O)[C@H](CO)NC(=O)[C@H](Cc1c[nH]cn1)NC(=O)[C@@H]1CCCN1C(=O)[C@H](CC(=O)O)NC(=O)[C@H](CCC(=O)O)NC(=O)CNC(=O)[C@H](C)NC(=O)[C@H](CCCNC(=N)N)NC(=O)[C@@H](N)CCC(N)=O)C(=O)N[C@@H](Cc1ccccc1)C(=O)N[C@@H](CO)C(=O)O` [Human Chemerin-19] (H-QRAGEDPHSFYFPGQFAFS-OH), the response was half-maximal at 16.7 ± 3.2 nM (EC50).
Take `C[C@H](N)C(=O)N[C@@H](Cc1ccccc1)C(=O)N1CCC[C@H]1C(=O)NCC(=O)N[C@@H](CCC(N)=O)C(=O)N[C@@H](Cc1ccccc1)C(=O)N[C@@H](C)C(=O)N[C@@H](Cc1ccccc1)C(=O)N[C@@H](CO)C(=O)O` [Human [Ala-1] Chemerin-9] (H-AFPGQFAFS-OH; N-terminus and C-terminus assumed): the EC50 amounted to 496 ± 80 nM.
`C[C@H](NC(=O)[C@H](Cc1ccccc1)NC(=O)[C@H](CCC(N)=O)NC(=O)CNC(=O)[C@@H]1CCCN1C(=O)[C@H](C)NC(=O)[C@@H](N)Cc1ccc(O)cc1)C(=O)N[C@@H](Cc1ccccc1)C(=O)N[C@@H](CO)C(=O)O` [Human [Ala-2] Chemerin-9] (H-YAPGQFAFS-OH; N-terminus and C-terminus assumed): the EC50 (truncated Chemerin peptides, values in nM, read-out: Mean EC50) amounted to 155 ± 41.6 nM.
As for `C[C@H](NC(=O)[C@H](C)NC(=O)[C@H](CCC(N)=O)NC(=O)CNC(=O)[C@@H]1CCCN1C(=O)[C@H](Cc1ccccc1)NC(=O)[C@@H](N)Cc1ccc(O)cc1)C(=O)N[C@@H](Cc1ccccc1)C(=O)N[C@@H](CO)C(=O)O` [Human [Ala-6] Chemerin-9] (H-YFPGQAAFS-OH; N-terminus and C-terminus assumed), under setting [1], the EC50 amounted to 5000 ± 1000 nM.
For `C[C@H](NC(=O)[C@H](C)NC(=O)[C@H](Cc1ccccc1)NC(=O)[C@H](CCC(N)=O)NC(=O)CNC(=O)[C@@H]1CCCN1C(=O)[C@H](Cc1ccccc1)NC(=O)[C@@H](N)Cc1ccc(O)cc1)C(=O)N[C@@H](CO)C(=O)O` [Human [Ala-8] Chemerin-9] (H-YFPGQFAAS-OH; N-terminus and C-terminus assumed), the EC50 under setting [1] stood at 38000 ± 7000 nM.
With `C[C@H](NC(=O)[C@H](Cc1ccccc1)NC(=O)[C@H](CCC(N)=O)NC(=O)CNC(=O)[C@@H]1CCCN1C(=O)[C@H](Cc1ccccc1)NC(=O)[C@H](Cc1ccc(O)cc1)NC(=O)[C@H](Cc1ccccc1)NC(=O)[C@H](CO)NC(=O)[C@H](Cc1c[nH]cn1)NC(=O)[C@@H]1CCCN1C(=O)[C@H](CC(=O)O)NC(=O)[C@H](CCC(=O)O)NC(=O)CNC(=O)[C@H](C)NC(=O)[C@H](CCCNC(=N)N)NC(=O)[C@@H](N)CCC(N)=O)C(=O)N[C@@H](Cc1ccccc1)C(=O)N[C@@H](CO)C(=O)N[C@@H](CCCCN)C(=O)O` [Human [Lys20] Chemerin-19] (H-QRAGEDPHSFYFPGQFAFSK-OH), a half-maximal effect (EC50) was put at 170000 nM.
Same read-out and setting: the result for `C[C@H](NC(=O)[C@H](CCCNC(=N)N)NC(=O)[C@@H](N)CCC(N)=O)C(=O)NCC(=O)N[C@@H](CCC(=O)O)C(=O)N[C@@H](CC(=O)O)C(=O)N1CCC[C@H]1C(=O)N[C@@H](Cc1c[nH]cn1)C(=O)N[C@@H](CO)C(=O)N[C@@H](Cc1ccccc1)C(=O)N[C@@H](Cc1ccc(O)cc1)C(=O)N[C@@H](Cc1ccccc1)C(=O)N1CCC[C@H]1C(=O)NCC(=O)N[C@@H](CCC(N)=O)C(=O)N[C@@H](Cc1ccccc1)C(=O)O` [Human [ΔAla17Phe18Ser19] Chemerin-19] (H-QRAGEDPHSFYFPGQF-OH) reads 130000 ± 10000 nM; that for `C[C@H](NC(=O)[C@H](Cc1ccccc1)NC(=O)[C@H](CCC(N)=O)NC(=O)CNC(=O)[C@@H]1CCCN1C(=O)[C@H](Cc1ccccc1)NC(=O)[C@H](Cc1ccc(O)cc1)NC(=O)[C@H](Cc1ccccc1)NC(=O)[C@H](CO)NC(=O)[C@H](Cc1c[nH]cn1)NC(=O)[C@@H]1CCCN1C(=O)[C@H](CC(=O)O)NC(=O)[C@H](CCC(=O)O)NC(=O)CNC(=O)[C@H](C)NC(=O)[C@H](CCCNC(=N)N)NC(=O)[C@@H](N)CCC(N)=O)C(=O)O` [Human [ΔPhe18Ser19] Chemerin-19] (H-QRAGEDPHSFYFPGQFA-OH; N-terminus and C-terminus assumed), 220000 nM.
On to `C[C@H](NC(=O)[C@H](Cc1ccccc1)NC(=O)[C@H](CCC(N)=O)NC(=O)CNC(=O)[C@@H]1CCCN1C(=O)[C@H](Cc1ccccc1)NC(=O)[C@H](Cc1ccc(O)cc1)NC(=O)[C@H](Cc1ccccc1)NC(=O)[C@H](CO)NC(=O)[C@H](Cc1c[nH]cn1)NC(=O)[C@@H]1CCCN1C(=O)[C@H](CC(=O)O)NC(=O)[C@H](CCC(=O)O)NC(=O)CNC(=O)[C@H](C)NC(=O)[C@H](CCCNC(=N)N)NC(=O)[C@@H](N)CCC(N)=O)C(=O)N[C@@H](Cc1ccccc1)C(=O)O` [Human [ΔSer19] Chemerin-19] (H-QRAGEDPHSFYFPGQFAF-OH; N-terminus and C-terminus assumed), for which a half-maximal response (EC50) required 97 ± 13 nM.
